We go through 20 compounds from patent publication US20120165310A1, “ETHER DERIVATIVES OF BICYCLIC HETEROARYLS” (NOVARTIS AG, priority 2009, published 2012).

T1 sequence (P08069 31-1367): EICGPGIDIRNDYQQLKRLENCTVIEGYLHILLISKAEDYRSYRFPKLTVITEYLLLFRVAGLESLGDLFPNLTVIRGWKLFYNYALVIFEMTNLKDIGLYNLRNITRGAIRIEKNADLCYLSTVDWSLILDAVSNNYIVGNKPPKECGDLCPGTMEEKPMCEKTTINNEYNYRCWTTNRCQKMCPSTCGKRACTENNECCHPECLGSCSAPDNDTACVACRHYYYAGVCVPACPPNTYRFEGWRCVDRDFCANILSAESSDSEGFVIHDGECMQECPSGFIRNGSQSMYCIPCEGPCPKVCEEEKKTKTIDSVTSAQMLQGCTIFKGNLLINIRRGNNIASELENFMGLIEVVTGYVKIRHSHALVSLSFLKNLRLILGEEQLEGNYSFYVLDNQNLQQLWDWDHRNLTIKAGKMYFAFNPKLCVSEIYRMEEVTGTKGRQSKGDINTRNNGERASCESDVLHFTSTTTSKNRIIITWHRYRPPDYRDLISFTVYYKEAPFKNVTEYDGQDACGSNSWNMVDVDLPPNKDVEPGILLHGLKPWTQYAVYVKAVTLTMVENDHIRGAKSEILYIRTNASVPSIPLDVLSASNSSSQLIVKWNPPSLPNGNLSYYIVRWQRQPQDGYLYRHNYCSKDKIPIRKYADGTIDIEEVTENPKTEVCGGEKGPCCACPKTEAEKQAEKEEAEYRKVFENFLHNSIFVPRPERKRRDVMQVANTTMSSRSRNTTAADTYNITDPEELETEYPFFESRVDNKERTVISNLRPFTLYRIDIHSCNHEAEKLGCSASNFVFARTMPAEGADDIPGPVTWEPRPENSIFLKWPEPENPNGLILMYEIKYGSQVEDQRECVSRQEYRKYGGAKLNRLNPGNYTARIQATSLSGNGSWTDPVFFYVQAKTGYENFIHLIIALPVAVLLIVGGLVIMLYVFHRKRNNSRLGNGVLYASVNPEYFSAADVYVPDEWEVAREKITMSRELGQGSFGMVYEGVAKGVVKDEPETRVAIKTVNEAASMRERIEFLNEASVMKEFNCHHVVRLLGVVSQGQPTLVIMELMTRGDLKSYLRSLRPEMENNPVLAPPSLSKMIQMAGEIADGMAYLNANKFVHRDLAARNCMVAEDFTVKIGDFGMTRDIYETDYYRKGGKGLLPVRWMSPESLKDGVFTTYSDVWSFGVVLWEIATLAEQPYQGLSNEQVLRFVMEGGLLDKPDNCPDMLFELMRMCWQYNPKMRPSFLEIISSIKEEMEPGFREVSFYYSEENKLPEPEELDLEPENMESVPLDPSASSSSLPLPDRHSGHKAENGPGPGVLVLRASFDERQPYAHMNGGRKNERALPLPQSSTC

The assay addresses T1, IGF-1R (Homo sapiens, UniProt P08069).
T1 construct: expressed in transfected cells; host or cells: Hek293 (Hek293-IGF1R)
Description: Cellular IGF-1R assay: capture ELISA (MSD) of receptor phosphorylation in Hek293 cells. Format: cell-based. As to conditions: Hek293-IGF1R cells, 1 h pre-incubation, 10 min IGF stimulation, pIGF1R capture ELISA. Summed up: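 IC50 from 4-parameter fit of IGF1R phosphorylation, normalised to IGF-stimulated and unstimulated controls, measured by MSD capture ELISA on lysates. Hek293-IGF1R cells in starvation medium got compound 1 h (top 10 μM, 3-fold steps, 0.1% DMSO) before a 10 min pulse of 1.0 ng/μL IGF.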
For the compound `Nc1ncnc2c1c(-c1cccc(OCC34CCC(CC3)O4)c1)cn2C1CC(CN2CCS(=O)(=O)CC2)C1` (centres unmarked) [Example 24, 7-[3-(1,1-dioxo-1-thiomorpholin-4-ylmethyl)-cyclobutyl]-5-[3-(7-oxa-bicyclo[2.2.1]hept-1-ylmethoxy)-phenyl]-7H-pyrrolo[2,3-d]pyrimidin-4-ylamine], the IC50 lay within 3.9 to 4 nM.
As to `CN1CCN([C@H]2CC[C@H](n3cc(-c4cccc(OCC5CCC(C)(C)O5)c4)c4c(N)ncnc43)CC2)CC1` (relative stereo) [Example 62, 5-[3-(5,5-dimethyl-tetrahydro-furan-2-ylmethoxy)-phenyl]-7-[trans-4-(4-methyl-piperazin-1-yl)-cyclohexyl]-7H-pyrrolo[2,3-d]pyrimidin-4-ylamine], the IC50 was found to be 314 nM.
In turn, `CC1CCC(COc2cccc(-c3cn(C4CC(CN5CCC5)C4)c4ncnc(N)c34)c2)O1` (single isomer, unassigned) [Example 7, cis-(RR and SS)-7-(3-azetidin-1-ylmethyl-cyclobutyl)-5-[3-(5-methyl-tetrahydro-furan-2-ylmethoxy)-phenyl]-7H-pyrrolo[2,3-d]pyrimidin-4-ylamine] returned an IC50 of 95 to 117 nM.
As to `Nc1ncnc2c1c(-c1cccc(OCC3CCCCO3)c1)cn2[C@H]1C[C@H](CN2CC(F)C2)C1` (relative stereo) [Example 37, 7-[trans-3-(3-fluoro-azetidin-1-ylmethyl)-cyclobutyl]-5-[3-(tetrahydro-pyran-2-ylmethoxy)-phenyl]-7H-pyrrolo[2,3-d]pyrimidin-4-ylamine], half-maximal inhibition (IC50) was put at 497 nM.
Under `NC(=O)[C@@H]1CCCN1C[C@H]1C[C@H](n2cc(-c3cccc(OCC4CCCCO4)c3)c3c(N)ncnc32)C1` (stereo partly drawn) [Example 38, (S)-1-(trans-3-{4-amino-5-[3-(tetrahydro-pyran-2-ylmethoxy)-phenyl]-pyrrolo[2,3-d]pyrimidin-7-yl}-cyclobutylmethyl)-pyrrolidine-2-carboxylic acid amide] stands 276 nM; under `NC(=O)[C@H]1CCCN1C[C@H]1C[C@@H](n2cc(-c3cccc(OCC4CCCO4)c3)c3c(N)ncnc32)C1` (stereo partly drawn) [Example 81, (R)-1-(cis-3-{4-amino-5-[3-(tetrahydro-furan-2-ylmethoxy)-phenyl]-pyrrolo[2,3-d]pyrimidin-7-yl}-cyclobutylmethyl)-pyrrolidine-2-carboxylic acid amide], 157 nM.
Under `NC(=O)[C@@H]1CCCN1[C@H]1C[C@H](n2cc(-c3cccc(OCC45CCC(CC4)O5)c3)c3c(N)ncnc32)C1` [Example 190, (S)-1-(trans-3-{4-Amino-5-[3-(7-oxa-bicyclo[2.2.1]hept-1-ylmethoxy)-phenyl]-pyrrolo[2,3-d]pyrimidin-7-yl}-cyclobutyl)-pyrrolidine-2-carboxylic acid amide] stands 435 nM; under “7-[cis-3-(2-hydroxymethyl-imidazol-1-ylmethyl)-cyclobutyl]-53-(7-oxa-bicyclo[2.2.1]hept-1-ylmethoxy)--phenyl]-7H-pyrrolo[2,3-d]pyrimidin-4-ylamine [Example 176]”, 149 nM.
Regarding `Nc1ncnc2c1c(-c1cccc(OCC3CCCCO3)c1)cn2[C@H]1C[C@@H](CN2CCCC2C(=O)O)C1` (relative stereo) [Example 92, 1-(cis-3-{4-amino-5-[3-(tetrahydro-pyran-2-ylmethoxy)-phenyl]-pyrrolo[2,3-d]pyrimidin-7-yl}-cyclobutylmethyl)-pyrrolidine-2-carboxylic acid], the IC50 is 559 nM. This IC50 is about 3.8-fold higher than that of the compound before.
Under `Nc1ncnc2c1c(-c1cccc(OCC34CCC(CC3)O4)c1)cn2C1CC(O)(CN2CCCC2CO)C1` (single isomer, unassigned) [Example 211] stands 224 nM.
On to `Nc1ncnc2c1c(-c1cccc(OCC34CCC(CC3)O4)c1)cn2[C@H]1C[C@@]2(COC(=O)O2)C1` [Example 197, (E)-2-{4-Amino-5-[3-(7-oxa-bicyclo[2.2.1]hept-1-ylmethoxy)-phenyl]-pyrrolo[2,3d]pyrimidin-7-yl}-5,7-dioxa-spiro[3.4]octan-6-one], for which the IC50 came out at 99 nM.
As to `Nc1ncnc2c1c(-c1cccc(OCC34CCC(CC3)O4)c1)cn2C1CCC(N2CC[C@H](F)C2)CC1` (stereo partly drawn) [Example 132, 5-(3-(7-oxabicyclo[2.2.1]heptan-1-ylmethoxy)phenyl)-7-((1R,4R)-4-((S)-3-fluoropyrrolidin-1-yl)cyclohexyl)-7H-pyrrolo[2,3-d]pyrimidin-4-amine], inhibition was half-maximal at 114 nM (IC50).
`Nc1ncnc2c1c(-c1cccc(OCC34CCC(CC3)O4)c1)cn2[C@H]1C[C@@H](CN2CCSCC2=O)C1` [Example 106, 4-(((1S,3S)-3-(5-(3-(7-oxabicyclo[2.2.1]heptan-1-ylmethoxy)phenyl)-4-amino-7H-pyrrolo[2,3-d]pyrimidin-7-yl}-cyclobutyl)methyl)thiomorpholin-3-one] came in with a half-maximal inhibitory concentration (IC50) of 61 nM.
As to `Nc1ncnc2c1c(-c1cccc(OCC34CCC(CC3)O4)c1)cn2C1CCN(C2COC2)CC1` [Example 118, 5-(3-(7-oxabicyclo[2.2.1]heptan-1-ylmethoxy)phenyl)-7-(1-(oxetan-3-yl)piperidin-4-yl)-7H-pyrrolo[2,3-d]pyrimidin-4-amine], the IC50 amounted to 397 nM.
The compound `CN(C)[C@H]1CC[C@H](n2cc(-c3cccc(OCC45CCC(CC4)O5)c3)c3c(N)ncnc32)CC1` (relative stereo) [Example 183, 7-(trans-4-Dimethylamino-cyclohexyl)-5-[3-(7-oxa-bicyclo[2.2.1]hept-1-ylmethoxy)-phenyl]-7H-pyrrolo[2,3-d]pyrimidin-4-ylamine] registered a half-maximal inhibitory concentration (IC50) of 88 nM.
The compound `CC1(C)CCC(COc2cccc(-c3cn(C4CC(CN5CCC(F)C5)C4)c4ncnc(N)c34)c2)O1` (single isomer, unassigned) [Example 45] gave an IC50 of 35 nM.
For `Nc1ncnc2c1c(-c1cccc(OCC34CCC(CC3)O4)c1)cn2C1CC(O)(CN2CCC(O)C2)C1` (single isomer, unassigned) [Example 207], the IC50 worked out at 327 nM.
As to `CS(=O)(=O)N1CCN(C[C@H]2CC[C@@H](n3cc(-c4cccc(OCC56CCC(CC5)O6)c4)c4c(N)ncnc43)CC2)CC1` [Example 137, 5-(3-(7-oxabicyclo[2.2.1]heptan-1-ylmethoxy)phenyl)-7-((1S,4S)-4-((4-(methylsulfonyl)piperazin-1-yl)methyl)cyclohexyl)-7H-pyrrolo[2,3-d]pyrimidin-4-amine], half-maximal inhibition (IC50) was put at 164 nM. This IC50 is about 2-fold lower than that of the compound before.
In the case of `CC1(C)CS(=O)(=O)CCN1CC1CCC(n2cc(-c3cccc(OCC45CCC(CC4)O5)c3)c3c(N)ncnc32)CC1` (centres unmarked) [Example 135, 7-[4-(3,3-Dimethyl-1,1-dioxo-1λ6-thiomorpholin-4-ylmethyl)-cyclohexyl]-5-[3-(7-oxa-bicyclo[2.2.1]hept-1-ylmethoxy)-phenyl]-7H-pyrrolo[2,3-d]pyrimidin-4-ylamine], the concentration for half-maximal inhibition (IC50) is 456 nM.
Under `CS(=O)(=O)CCN1CCC(n2cc(-c3cccc(OCC45CCC(CC4)O5)c3)c3c(N)ncnc32)CC1` [Example 114, 5-(3-(7-oxabicyclo[2.2.1]heptan-1-ylmethoxy)phenyl)-7-(1-(2-(methylsulfonyl)ethyl)piperidin-4-yl)-7H-pyrrolo[2,3-d]pyrimidin-4-amine] stands 299 nM.
